Reference: the NIST ThermoML archive (doi:10.1021/je030136n)

Experiment: xn = mol fraction of the nth substance listed
Details: Liquid, Pulse-echo method

CCCCCCC [heptane] + CCCO
Details | speed of sound [m/s]
298.17 K, 30400 kPa, x2 = 0.3008 | 1319.3
298.17 K, 45590 kPa, x2 = 0.3008 | 1394.1
298.17 K, 60790 kPa, x2 = 0.3008 | 1461.5
298.17 K, 60790 kPa, x2 = 0.7986 | 1471.8
298.17 K, 75990 kPa, x2 = 0.1008 | 1526.8
298.17 K, 75990 kPa, x2 = 0.3008 | 1523.2
298.17 K, 75990 kPa, x2 = 0.7986 | 1529.5
298.17 K, 91190 kPa, x2 = 0.1008 | 1584.5
298.17 K, 91190 kPa, x2 = 0.7016 | 1580.7
298.17 K, 111450 kPa, x2 = 0.7016 | 1647.6
298.18 K, 100 kPa, x2 = 0.3008 | 1128.6
298.18 K, 100 kPa, x2 = 0.6027 | 1144.3
298.18 K, 45590 kPa, x2 = 0 | 1400.1
298.18 K, 60790 kPa, x2 = 0.1008 | 1464.2
298.18 K, 60790 kPa, x2 = 0.7016 | 1467.2
298.18 K, 75990 kPa, x2 = 0.7016 | 1526
298.18 K, 101320 kPa, x2 = 0.7016 | 1614.9
298.18 K, 111450 kPa, x2 = 0.1008 | 1655.1
298.18 K, 121580 kPa, x2 = 0.7016 | 1678.9
298.19 K, 30400 kPa, x2 = 0.6027 | 1326.4
298.19 K, 45590 kPa, x2 = 0.6027 | 1398.6
298.19 K, 45590 kPa, x2 = 0.7016 | 1403
298.19 K, 60790 kPa, x2 = 0 | 1468.7
298.19 K, 91190 kPa, x2 = 0.3008 | 1580.1
298.19 K, 91190 kPa, x2 = 0.6027 | 1579
298.2 K, 100 kPa, x2 = 0.7016 | 1154
298.2 K, 30400 kPa, x2 = 0.7016 | 1332.1
298.2 K, 121580 kPa, x2 = 0.7986 | 1679.9
298.22 K, 75990 kPa, x2 = 0.6027 | 1523.5
298.23 K, 60790 kPa, x2 = 0.6027 | 1463.6
298.25 K, 101320 kPa, x2 = 0.7986 | 1616.7
298.26 K, 91190 kPa, x2 = 0.7986 | 1583
303.06 K, 100 kPa, x2 = 0 | 1108.9
303.07 K, 45590 kPa, x2 = 0 | 1384.4
303.08 K, 60790 kPa, x2 = 0.6027 | 1449.5
303.08 K, 101320 kPa, x2 = 0.6027 | 1601.2
303.09 K, 101320 kPa, x2 = 0.7986 | 1604.9
303.1 K, 75990 kPa, x2 = 0.7986 | 1516.7
303.1 K, 91190 kPa, x2 = 0.7986 | 1570.9
303.1 K, 101320 kPa, x2 = 0 | 1612.6
303.1 K, 111450 kPa, x2 = 0.6027 | 1634.7
303.1 K, 121580 kPa, x2 = 0 | 1681.2
303.11 K, 111450 kPa, x2 = 0.4992 | 1635.3
303.11 K, 121580 kPa, x2 = 0.4992 | 1667.7
303.11 K, 121580 kPa, x2 = 0.7986 | 1668.6
303.12 K, 100 kPa, x2 = 0.7986 | 1147.6
303.12 K, 30400 kPa, x2 = 0.7986 | 1324.1
303.12 K, 45590 kPa, x2 = 0.7016 | 1388.2
303.12 K, 45590 kPa, x2 = 0.7986 | 1394.5
303.12 K, 101320 kPa, x2 = 0.4992 | 1601.3
303.12 K, 111450 kPa, x2 = 0.7986 | 1637.5
303.12 K, 121580 kPa, x2 = 0.7016 | 1667.3
303.13 K, 30400 kPa, x2 = 0 | 1307
303.13 K, 30400 kPa, x2 = 0.7016 | 1316.2
303.13 K, 60790 kPa, x2 = 0.7986 | 1458.1
303.13 K, 75990 kPa, x2 = 0.7016 | 1512.7
303.13 K, 91190 kPa, x2 = 0.4992 | 1565.8
303.13 K, 91190 kPa, x2 = 0.7016 | 1567.8
303.13 K, 101320 kPa, x2 = 0.7016 | 1602.5
303.13 K, 111450 kPa, x2 = 0.7016 | 1635.6
303.14 K, 100 kPa, x2 = 0.7016 | 1134.5
303.14 K, 30400 kPa, x2 = 0.4992 | 1306.5
303.14 K, 30400 kPa, x2 = 0.6027 | 1310
303.14 K, 60790 kPa, x2 = 0.7016 | 1453.1
303.14 K, 75990 kPa, x2 = 0.4992 | 1509.2
303.14 K, 91190 kPa, x2 = 0.6027 | 1565.9
303.15 K, 100 kPa, x2 = 0.6027 | 1124
303.15 K, 45590 kPa, x2 = 0.6027 | 1383.2
303.15 K, 60790 kPa, x2 = 0.4992 | 1448
303.15 K, 75990 kPa, x2 = 0.6027 | 1509.9
303.15 K, 111450 kPa, x2 = 0 | 1647.6
303.16 K, 100 kPa, x2 = 0.4992 | 1116
303.16 K, 15200 kPa, x2 = 0.1008 | 1213.6
303.16 K, 45590 kPa, x2 = 0.4992 | 1380.9
303.16 K, 121580 kPa, x2 = 0.3008 | 1669.9
303.17 K, 15200 kPa, x2 = 0 | 1218.6
303.17 K, 75990 kPa, x2 = 0 | 1517.2
303.17 K, 101320 kPa, x2 = 0.1008 | 1607.1
303.17 K, 101320 kPa, x2 = 0.3008 | 1602.4
303.18 K, 60790 kPa, x2 = 0 | 1453.7
303.18 K, 91190 kPa, x2 = 0 | 1575.7
303.18 K, 111450 kPa, x2 = 0.1008 | 1642
303.18 K, 121580 kPa, x2 = 0.6027 | 1666.6
303.19 K, 121580 kPa, x2 = 0.1008 | 1675.4
303.2 K, 100 kPa, x2 = 0.3008 | 1107.1
303.2 K, 30400 kPa, x2 = 0.3008 | 1301.8
303.2 K, 60790 kPa, x2 = 0.1008 | 1448.8
303.21 K, 30400 kPa, x2 = 0.1008 | 1301.9
303.21 K, 45590 kPa, x2 = 0.1008 | 1379.3
303.21 K, 60790 kPa, x2 = 0.3008 | 1446
303.21 K, 75990 kPa, x2 = 0.1008 | 1512.1
303.21 K, 75990 kPa, x2 = 0.3008 | 1508.5
303.21 K, 91190 kPa, x2 = 0.1008 | 1570.5
303.21 K, 91190 kPa, x2 = 0.3008 | 1566.1
303.22 K, 100 kPa, x2 = 0.1008 | 1103.8
303.23 K, 45590 kPa, x2 = 0.3008 | 1377.7
303.25 K, 111450 kPa, x2 = 0.3008 | 1636.9
